# Measured values as given in US20240148779A1, “METHODS FOR THE TREATMENT OF PROTEINOPATHIES” (RENATUS INC., priority 2022, published 2024).
# Tests used:
# SH-SY5Y cells [1] = assay: Cytotoxicity induced by cyclodextrins in SH-SY5Y cells (CCK-8)
# Description: HPBCD oligomer was prepared by using hydroxypropyl-beta-cyclodextrin (HPBCD) monomers with a molar substitution value between 0.4 and 0.8. […] SH-SY5Y cells were maintained using DMEM containing 10% fetal bovine serum, 1% Penicillin-Streptomycin, and retinoic acid (50 μM) to induce differentiation into neuron-like cells. Media was changed total three times (1, 3, and 5 days post-seeding) and the cells were seeded for experiments on the next day. The cells were seeded in a 96-well plate at a density of 5×10^4 cells per well. On the next day, the cells were treated with each cyclodextrin at 2.5 mg/mL, 5 mg/mL, 10 mg/mL, and 20 mg/mL for 24 hours. Cellular viability was measured using Cell Counting Kit-8 (CCK-8) and measuring the absorbance at 450 nm.
# TNF-α = assay: Aβ42 aggregate-induced inflammation, secreted TNF-α by ELISA in SH-SY5Y cells; type: cell-based; settings: Aβ42 25 μM, 24 hours, cyclodextrins 2.5 mg/mL, FIG. 12
# Description: The pre-aggregated Aβ42 was treated at a concentration of 25 μM for 24 hours with or without cyclodextrins and enzyme-linked immunosorbent assay (ELISA) was performed to measure inflammatory cytokines secreted by the cells. […] GCD oligomer was prepared by using gamma-cyclodextrin (GCD) monomers.
# SH-SY5Y cells [2] = assay: Cytotoxicity induced by pre-aggregated Aβ42 in SH-SY5Y cells (CCK-8); type: cell-based; settings: Aβ42 25 μM, 48 hours, cyclodextrins 1, 2.5 and 5 mg/mL, FIG. 7
# Description: (§1) Amyloid beta 1-42 (Aβ42) was dissolved in distilled water at a concentration of 1 mM, vortexed for 30 seconds, and then incubated at 37° C. for 7 days to induce pre-aggregation. […] ARPE-19 cells were maintained using DMEM/F12 media containing 10% fetal bovine serum, 1% Penicillin-Streptomycin, 1% HEPES, and 2.5 mM L-Glutamine. […] On the next day, the cells were treated with pre-aggregated Aβ42 at a concentration of 25 μM for 48 hours in the presence of cyclodextrins (1, 2.5, and 5 mg/mL).
# Then, we investigated the effects of molecular weights of gamma-cyclodextrin oligomers on the cytotoxicity induced by protein aggregates. […] The SH-SY5Y cells were treated with pre-aggregated Aβ42 for 48 hours in the presence of cyclodextrins (5 mg/mL).
# ARPE-19 cells = assay: Cytotoxicity induced by pre-aggregated Aβ42 in ARPE-19 cells (CCK-8); type: cell-based; settings: ARPE-19, Aβ42 25 μM, 48 hours, cyclodextrins 1, 2.5 and 5 mg/mL, FIG. 7
# Description: as §1
# SH-SY5Y cells [3] = assay: Cytotoxicity induced by pre-aggregated alpha-synuclein in SH-SY5Y cells; type: cell-based; settings: αSyn 1 μM, 24 hours, cyclodextrins 1, 2.5 and 5 mg/mL, FIG. 8
# Description: as §1
# Using the SH-SY5Y cells, the cytotoxicity of aggregated alpha-synuclein (αSyn) was evaluated. The cells were treated with pre-aggregated αSyn (1 μM) for 24 hours in the presence of cyclodextrins (1, 2.5, and 5 mg/mL).
# SH-SY5Y cells [4] = assay: Plasma membrane cholesterol extraction in SH-SY5Y cells; type: cell-based; settings: cyclodextrin 20 mg/mL, 37° C., 1 hour, FIG. 11
# Description: Since cyclodextrin-mediated cytotoxicity is known to be caused by excessive plasma membrane cholesterol extraction and consequential membrane disruption, we investigated cholesterol extraction from the cells. […] The next day, the cells treated with cyclodextrins at a concentration of 20 mg/mL at 37° C. for 1 hour. The supernatant was collected, centrifuged at a rate of 14,000 g for 30 minutes to remove cell debris and microvesicles, and then the cholesterol concentration in the supernatant was quantified using a Cholesterol Quantification Kit (Sigma Aldrich).
Compound,"cellular viability (SH-SY5Y cells [1]; human, 24 h, 20 mg/mL) [%]",level of secreted TNF-α (TNF-α),effect on cytotoxicity induced by Aβ42 aggregate (SH-SY5Y cells [2]),effect on cytotoxicity induced by Aβ42 aggregate (ARPE-19 cells),effect on cytotoxicity induced by αSyn aggregate (SH-SY5Y cells [3]),"cellular viability (SH-SY5Y cells [1]; SH-SY5Y, cyclodextrin 20 mg/mL, 24 hours, FIG. 10) [%]",level of plasma membrane cholesterol extraction (SH-SY5Y cells [4])
"CC(O)COC[C@H]1O[C@@H]2O[C@H]3[C@H](O)[C@@H](O)[C@@H](O[C@H]4[C@H](O)[C@@H](O)[C@@H](O[C@H]5[C@H](O)[C@@H](O)[C@@H](O[C@H]6[C@H](O)[C@@H](O)[C@@H](O[C@H]7[C@H](O)[C@@H](O)[C@@H](O[C@H]8[C@H](O)[C@@H](O)[C@@H](O[C@H]1[C@H](O)[C@H]2O)O[C@@H]8COCC(C)O)O[C@@H]7COCC(C)O)O[C@@H]6COCC(C)O)O[C@@H]5COCC(C)O)O[C@@H]4COCC(C)O)O[C@@H]3COCC(C)O (stereo partly drawn) [HPBCD, hydroxypropyl-beta-cyclodextrin]",43.25,did not show significant effect,–,–,–,–,–
hydroxypropyl-gamma-cyclodextrin [HPGCD],–,did not show significant effect,did not show such effect,did not show such effect,less effective,81.38,no significance compared to PBS
